Legend:
[1] = biological target: T1, α-amylase (Sus scrofa, UniProt P00690); experiment: Alpha-amylase activity assay (starch, DNS, 540 nm); assay type: biochemical; settings: standard acarbose
T1 sequence (P00690 16-511): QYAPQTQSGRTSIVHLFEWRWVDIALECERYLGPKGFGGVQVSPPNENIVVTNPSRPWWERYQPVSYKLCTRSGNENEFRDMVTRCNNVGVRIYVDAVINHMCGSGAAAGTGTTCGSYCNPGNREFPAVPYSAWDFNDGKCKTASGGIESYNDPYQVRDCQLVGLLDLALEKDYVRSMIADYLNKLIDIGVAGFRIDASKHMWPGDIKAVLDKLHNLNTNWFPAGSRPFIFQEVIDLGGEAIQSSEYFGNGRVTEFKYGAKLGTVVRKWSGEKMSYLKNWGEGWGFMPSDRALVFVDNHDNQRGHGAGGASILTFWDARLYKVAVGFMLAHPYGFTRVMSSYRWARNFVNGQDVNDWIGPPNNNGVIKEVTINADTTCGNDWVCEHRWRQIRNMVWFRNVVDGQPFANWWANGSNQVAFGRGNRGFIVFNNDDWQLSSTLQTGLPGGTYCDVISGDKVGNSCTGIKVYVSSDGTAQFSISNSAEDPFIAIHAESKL
From the text: (§1) In order to obtain biological profiles, all the derivatives were screened against enzymes α-amylase along and α-glucosidase.

[2] = biological target: α-glucosidase (Saccharomyces cerevisiae, UniProt P53341); experiment: Alpha-glucosidase inhibition assay; assay type: biochemical; settings: standard acarbose
From the text: as §1

Chain of α-glucosidase (P53341 whole entry): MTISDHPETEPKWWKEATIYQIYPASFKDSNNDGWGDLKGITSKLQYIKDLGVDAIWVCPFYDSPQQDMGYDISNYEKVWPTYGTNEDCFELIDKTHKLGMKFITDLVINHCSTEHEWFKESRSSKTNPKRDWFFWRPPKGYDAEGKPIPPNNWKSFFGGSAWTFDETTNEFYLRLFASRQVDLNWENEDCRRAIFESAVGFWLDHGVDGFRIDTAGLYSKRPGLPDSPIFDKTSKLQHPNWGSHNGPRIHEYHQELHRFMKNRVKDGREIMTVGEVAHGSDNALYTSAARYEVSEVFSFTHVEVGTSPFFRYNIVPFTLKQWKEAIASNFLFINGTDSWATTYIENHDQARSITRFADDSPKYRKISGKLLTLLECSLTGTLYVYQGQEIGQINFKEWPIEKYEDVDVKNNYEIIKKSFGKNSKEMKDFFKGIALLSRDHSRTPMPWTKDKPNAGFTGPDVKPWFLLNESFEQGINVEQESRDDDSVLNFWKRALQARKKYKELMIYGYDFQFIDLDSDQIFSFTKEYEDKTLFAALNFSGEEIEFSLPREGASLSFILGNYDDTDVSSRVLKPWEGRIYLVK

`O=C1CS/C(=N\c2nnc(CC(c3c[nH]c4ccccc34)C(F)(F)F)o2)N1c1cccc(Oc2ccccc2)c1` (centres unmarked) [Compound 14] was tested. Which “Alpha Amylase IC50” value [1] did it give?
Its value is “non-active”.

And the “Alpha Glucosidase IC50” value [2]?
Its value is “non-active”.

From PMC11597374, “Synthesis, Characterizations, Anti-Diabetic and Molecular Modeling Approaches of Hybrid Indole-Oxadiazole Linked Thiazolidinone Derivatives” (Pharmaceuticals, 2024)
